Reference: patent US20130023587A1, “COMPOSITIONS AND METHODS FOR THE TREATMENT OF CANCER” (DUKE UNIVERSITY, priority 2010, published 2013)
“Also recorded” adds a separate entry of the source.

Legend:
[1] = target: T1, MCT-1 (Rattus norvegicus, UniProt P53987); assay: 13C NMR of lactate uptake and catabolism to alanine and glutamate in R3230 cells; format: cell-based; conditions: 5 mM CHC
T1 construct: endogenous in cells; host or cells: R3230 rat mammary carcinoma cells
T1 sequence (P53987 1-494): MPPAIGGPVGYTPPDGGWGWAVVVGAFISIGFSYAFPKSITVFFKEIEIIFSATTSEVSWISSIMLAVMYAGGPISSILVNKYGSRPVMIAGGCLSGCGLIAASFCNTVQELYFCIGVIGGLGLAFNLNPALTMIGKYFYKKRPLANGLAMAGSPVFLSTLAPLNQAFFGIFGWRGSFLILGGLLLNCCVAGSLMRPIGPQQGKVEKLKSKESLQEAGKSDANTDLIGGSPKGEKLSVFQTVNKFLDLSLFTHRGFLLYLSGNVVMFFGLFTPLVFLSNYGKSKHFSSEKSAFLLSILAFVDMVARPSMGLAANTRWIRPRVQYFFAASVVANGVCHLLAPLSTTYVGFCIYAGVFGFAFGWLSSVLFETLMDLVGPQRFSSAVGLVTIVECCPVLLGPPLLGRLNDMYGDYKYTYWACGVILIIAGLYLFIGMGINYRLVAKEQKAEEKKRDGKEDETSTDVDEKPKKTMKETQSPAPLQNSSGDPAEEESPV
Description: ^1H-NMR and ^13C-NMR: R3230 cells were grown to 60% confluency. Cells were washed and exposed to DMEM with varying concentrations of ^13C-methyl labeled L-lactate solution (Sigma, St. Louis, Mo.), without serum and glucose. Cells were washed, mounted with 60% perchloric acid, scraped down, and centrifuged at 8,000 G for 5 min; PBS (20% vol/vol) and 98% deuterated water (10% vol/vol) (Sigma, St. Louis, Mo.) were added to supernatants to a total of 600 uL for NMR. For medium sample analysis, 10% vol/vol deuterated water was added to the medium before NMR analysis. NMR spectra were recorded on a Varian 500 MHz VNMRS spectrometer equipped with a Dell Optiplex 755 data system and a 5 mm Varian inverse probe. ^1H NMR spectra were obtained with a spectral width (SW) of 5.5 kHz, a 67 pulse flip angle (6 us), a 6.4 s acquisition time (AT), a 2 sec water presaturation pulse and relaxation delay (RD), and digitized using 64000 points to obtain a digital resolution of 0.172 Hz per point. ^1H-decoupled ^13C spectra were recorded at 125 MHz with a 32051.3 Hz SW, a 60 pulse flip angle (6.5 us), a 2.0 s AT, a 0.7 s RD and digitized into 130,000 points to yield a digital resolution of 0.493 Hz per point.

[2] = test system: R3230 cells; assay: Clonogenic assay; format: cell-based, rat
Excerpt: Cells were washed and returned to normal growth medium. 14 days later, colonies were stained with crystal violet and counted.

[3] = test system: R3230 cells; assay: Measurement of redox changes (NAD+/NADH optical density 260/340 nm); format: cell-based, rat; conditions: within 2 minutes after isovolumic addition
Description: Measurement of redox changes: Cells were trypsinized, washed, and brought to 5×10^6/mL in PBS. 1 mL of cell suspension was scanned for optical density in a cuvette at 260 nm (NAD^+) and 340 nm (NADH+H^+). Various concentrations of Na-lactate in PBS were added at 20 μL/mL.

[4] = test system: R3230 cells; assay: pHi measurements with BCECF-AM; format: cell-based, rat; conditions: fluorescent dye BCECF-AM
Description: pHi measurements: Cells were grown on glass coverslides and incubated with BCECF-AM (Invitrogen) at 5 μM for 20 min, and imaged on an inverted fluorescence microscope, with excitation at 440 and 490 nm, emission 535 nm. Ratiometric pH calibration was done in mixture ratios of buffers containing 110 mM K2HPO4 or 135 mM KH2PO4, and 20 mM NaCl, respectively. Nigericin was added at 10 μM (Franck et al, 1996) and pH expressed as ratios of grayscale values from stacks of calibration images taken from the nigericin-treated cells, imaged at 440 and 490 nm (Franck et al, 1996).

[5] = test system: R3230 cells; assay: Measurement of metabolic rates (glucose consumption) in cultured R3230 cells; format: cell-based, rat
Description: (§1) Tissue culture and measurement of metabolic rates: The R3230 rat mammary carcinoma was originally derived from a spontaneous mammary carcinoma of the Fischer 344 rat (Hilf et al, 1965; Lindberg et al, 1996). Cells were exposed to 6% or 0.5% oxygen (Vaupel et al, 1991) at 37° C., and […] in glucose- and serum-free DMEM, while dishes were placed on a slow-moving rocker. Cells were counted and media samples were collected at the beginning and end of the experiment, and analyzed for glucose and lactate content using a CMA microdialysis analyzer (CMA, Sweden).

[6] = test system: R3230 cells; assay: Survival of R3230 cells by counts of attached cells; format: cell-based, rat
Description: (F) Effect of Na-lactate concentration on cellular NAD/NADH ratio (expressed as light absorbance ratio, 260/340 nm).
as §1

[7] = test system: R3230 Ac; assay: Uptake kinetics of 14C-lactate or 14C-glucose in vivo (3-compartment model); design: species or system rat; conditions: 14C-labeled metabolite infused i.v., fitted rate constant
Description: Uptake kinetics of ^14C-lactate in vivo: Kinetics of ^14C-lactate or ^14C-glucose uptake were studied using a novel implantable fiber optic radiation detection probe provided by Sicel Technologies Inc., Durham, N.C. Time uptake curves from tumor, subcutaneous, and blood compartments were analyzed using a 3-compartment model from which were derived parameters related to the transfer coefficients in and out of the tumor and blood clearance (see Supplemental methods for detail). The apparatus detected beta radiation from ^14C, which is proportional to ^14 C-lactate or ^14C-glucose concentration. Probes were inserted into tumors of anesthetized rats (Isoflurane as above) and subcutaneous tissue as a control. Each probe was calibrated using ^14C-glucose solutions of known concentration (μCi/mL) immediately before the experiment. After a stabilization period of 50 min, 50 μCi of ^14C-lactate or ^14C-glucose was infused intravenously. Data were recorded in two-minute intervals over 3 h. Baseline (background, dark current values) were subtracted from each time point.
Normalization to the calibration solution was done to control for variations in probe performance and length of probe used in different tumors. The relationship between photons detected and concentration (μCi/mL) was linear, based on experiments done by the company. Data were graphed as the change in μCi/mL over time, and normalized to dose/body weight (μCi/g) to obtain a standardized uptake value (SUV).
In separate animals, blood samples (300 μL-500 μL) were taken at 0, 4, 7, 10, 15, 25, 30, 60, 100, and 160 minutes from the arterial cannula following ^14C-radioisotope infusion. Samples were centrifuged, and plasma collected and weighed. Plasma activities were measured in a liquid scintillation counter (Packard Tri-Carb 1500, Perkin Elmer Life and Analytical Sciences Inc., Boston Mass.) and isotope concentrations (μCi/g) were calculated. Blood activity data were normalized to dose/body weight. Time uptake curves from tumor, subcutaneous, and blood compartments were analyzed using a 3-compartmental model.
The equations defining tracer kinetics were the following:
dCp/dt=−(k1+k4+k0)Cp+k2Ct+k5Cs (1)
Cp, Ci, and Cs were the tracer concentration in central blood compartment, tumor cells, and subcutaneous tissue, respectively. Ct was the measured compound concentration in tumor. Vb was the vascular volume fraction. Due to the nature of the measurement, the tumor probe collected photon counts from both tumor cells and nearby vasculature. The last equation described vascular contribution to the overall photon counts in the tumor tissue. Ki was the transfer constant between each compartment. The averaged isotope concentration in plasma was used to create an empirical blood curve to be used in the model. […]

Compound	effect on lactate catabolism to alanine and glutamate ([1]; 40 mM 13C-lactate, 24 h, glucose/serum free)	effect on lactate uptake, low lactate ([1]; lactate 5 mM)	effect on lactate uptake, high lactate ([1]; lactate 40 mM)	effect on clonogenic survival, higher concentrations of CHC ([2]; any ambient lactate)	effect on clonogenic survival, low concentrations of CHC ([2]; high ambient lactate (>5mM) versus low lactate (0-5 mM))	effect on NAD+/NADH2+ (reductive stress) [3]	effect on intracellular pH [4]	effect of escalated extracellular lactate on glucose consumption ([5]; glucopenic conditions)	inhibition of glucose consumption ([5]; glucose 0.2 mM, 18 hr incubation, 6% O2) [%]	effect on survival under glucose starvation ([6]; lactate 2.5 mM)	Na-lactate concentration leading to decreased survival (counts of attached cells) ([6]; under glucose deprivation) [mM]	K1 Transfer rate into tumor ([7]; R3230 Ac tumour-bearing rats)	K2 Transfer rate out of tumor ([7]; R3230 Ac tumour-bearing rats)	K4 Transfer rate into SQ ([7]; subcutaneous tissue)	K5 Transfer rate out of SQ ([7]; subcutaneous tissue)
N#CC(=Cc1ccc(O)cc1)C(=O)O [CHC, α-cyano-4-hydroxycinnamate]	effectively inhibited catabolism of lactate to glutamate and alanine; also recorded: inhibited breakdown of lactate and conversion into alanine and glutamate	effectively inhibited lactate uptake	lactate uptake persisted	cytotoxic, independent of ambient lactate	selectively reduced R3230 clonogenic survival at high ambient lactate										
CC(O)C(=O)O (stereo not drawn) [Lactate, lactate]						concentration-dependent drop	concentration-dependent reduction of intracellular pH	inhibited glucose consumption in a concentration-dependent manner	41	rendered a survival advantage	> 2.5	0.2381	0.06182	0.00144	0.07439
